Assay results published in article PMC9457622, “Synthesis of Bio-Inspired 1,3-Diarylpropene Derivatives via Heck Cross-Coupling and Cytotoxic Evaluation on Breast Cancer Cells” (Molecules, 2022).
“Also recorded” adds a separate entry of the source.

How the values were obtained:
Format in all cases: cell-based
[1] = system: MDA-MB-231 human breast cancer cell lines; experiment: MTT proliferation (cytotoxicity) assay on MDA-MB-231 cells; conditions: for cytotoxicity against MDA-MB-231 (in words): 10-100 µM, 24-72 h; for cytotoxicity against MDA-MB-231 (in words) / IC50: MTT; for SI (selectivity index) MDA-MB-231: IC50 normal cells (MCF-10A) divided by IC50 MDA-MB-231; for IC50: Homo sapiens, MDA-MB-231
Excerpt: (§1) MCF-7 and MDA-MB-231 human breast cancer cell lines, as well as MCF-10A human normal breast cell lines, were used in this study. These cells were acquired from the American Type Culture Collection (Manassas, VA, USA). MCF-7 and MDAMB-231 cells were regularly cultured in Dulbecco’s Modified Eagle’s Medium (DMEM; Gibco, Waltham, MA, USA), and supplemented with 10% (v/v) foetal bovine serum (FBS; Gibco, Waltham, MA, USA) and 100 U/mL penicillin-streptomycin (PenStrep; Gibco, Waltham, MA, USA). MCF-10A cells were routinely cultured in DMEM/F12 (Gibco, Waltham, MA, USA) medium supplemented with 5% horse serum (Sigma-Aldrich, Burlington, MA, USA), 10 μg/mL of insulin (Sigma-Aldrich, Burlington, MA, USA), 20 ng/mL of human epidermal growth factor (hEGF; ThermoFisher, Waltham, MA, USA), 0.5 μg/mL of hydrocortisone (Sigma-Aldrich, Burlington, MA, USA) and 1 U/mL PenStrep. All cell lines were maintained in a humidified atmosphere with 5% CO2 at 37 °C.
(§2) The effects of the N-(2-cinnamylphenyl)amide products (i.e., isolated pure isomers) on MCF-7, MDA-MB-231 and MCF-10A were determined using a 3-(4,5-dimethylthiazol-2-yl)-2,5-diphenyltetrazolium bromide (MTT) proliferation assay. The cell lines were seeded in 96-well plates at a density of 1 × 10^4 cells/well and allowed to grow overnight for cell attachment. The cell lines were then treated with fresh assay medium, supplemented with increasing concentrations of tested compounds (10–100 µM) and incubated for 24–72 h at 37 °C. For this assay, the blank and negative controls used were the culture medium alone (without cells) and cells with culture medium only (untreated cells), respectively. […] At each incubation period (24, 48 and 72 h), 10 μL of MTT solution (5 mg/mL) was added to each well, and cells were further incubated for 4 h at 37 °C in 5% CO2. The solution mixture in each well was replaced with 100 μL of dimethyl sulfoxide (DMSO) to solubilise the MTT crystalline products. The optical density (O.D.) of each well was measured using a microplate reader (PowerWave-XS; Bio-Tek Instruments, Winooski, Vermont, USA) at 570 nm. The experiments were conducted in triplicate for each cell line.
(§3) The selectivity index (SI) was used to indicate the cytotoxic selectivity of the samples against cancer cells and normal cells. It was calculated from the IC50 of the samples in normal cells versus cancer cells. […] All data were analysed and presented as means standard deviation (±SD). Comparisons between each concentration of 18 samples were evaluated using Student’s t-test, where p < 0.05, p < 0.01 or p < 0.001 were considered as statistically significant relative to the untreated control cells.

[2] = system: MCF-10A human normal breast cell lines; experiment: MTT proliferation (cytotoxicity) assay on MCF-10A normal cells
Excerpt: as §1, §2, §3

[3] = system: MCF-7 human breast cancer cell lines; experiment: MTT proliferation (cytotoxicity) assay on MCF-7 cells; conditions: for cytotoxicity against MCF-7 (in words): 10-100 µM, 24-72 h; for cytotoxicity against MCF-7 (in words) / IC50: MTT; for SI (selectivity index) MCF-7: IC50 normal cells (MCF-10A) divided by IC50 MCF-7; for IC50: Homo sapiens, MCF7
Excerpt: as §1, §2, §3

SMILES | cytotoxicity against MDA-MB-231 (in words) [1] | SI (selectivity index) MDA-MB-231 ([1]; 48 h) | SI (selectivity index) MDA-MB-231 ([1]; 72 h) | IC50 ([1]; 24 h incubation) [µM] | IC50 ([1]; 48 h incubation) [µM] | IC50 ([1]; 72 h incubation) [µM] | IC50 ([2]; 24 h incubation) [µM] | IC50 ([2]; 48 h incubation) [µM] | IC50 ([2]; 72 h incubation) [µM] | cytotoxicity against MCF-7 (in words) [3] | SI (selectivity index) MCF-7 ([3]; 24 h) | SI (selectivity index) MCF-7 ([3]; 48 h) | SI (selectivity index) MCF-7 ([3]; 72 h) | IC50 ([3]; 24 h incubation) [µM] | IC50 ([3]; 48 h incubation) [µM] | IC50 ([3]; 72 h incubation) [µM] | SI (selectivity index) MDA-MB-231 ([1]; 24 h) | SI value ([3]; abstract, time not stated, considered general toxicity)
CCCCC(=O)Nc1ccccc1/C=C/Cc1ccc(OC)cc1 [Compound 6d, (E)-N-(2-(3-(4-Methoxyphenyl)prop-1-en-1-yl)phenyl)pentanamide] | inactive; also recorded: low growth inhibition | < 0.94 | < 0.93 | > 100 | > 100 | > 100 | > 100 | 94.4 ± 9.71 | 92.9 ± 8.71 | low growth inhibition | > 1.06 | 1.01 | 1.41 | 94 ± 1.26 | 93.3 ± 2.15 | 65.8 ± 7.33 | – | –
CCCCCC(=O)Nc1ccccc1/C=C/Cc1ccc(OC)cc1 [Compound 6e, (E)-N-(2-(3-(4-Methoxyphenyl)prop-1-en-1-yl)phenyl)hexanamide] | low growth inhibition | < 0.90 | < 0.99 | > 100 | > 100 | > 100 | 80.9 ± 7.58 | 90.1 ± 8.8 | 98.5 ± 2.6 | low growth inhibition | < 0.81 | < 0.90 | < 0.99 | > 100 | > 100 | > 100 | < 0.81 | –
COc1ccc(C/C=C/c2ccccc2NC(=O)c2ccccc2C)cc1 [Compound 6i, (E)-N-(2-(3-(4-Methoxyphenyl)prop-1-en-1-yl)phenyl)-2-methylbenzamide] | – | – | > 1.36 | > 100 | > 100 | 73.8 ± 6.92 | > 100 | > 100 | > 100 | – | – | – | > 1.09 | > 100 | > 100 | 91.8 ± 7.95 | – | –
CCCCC(=O)Nc1ccccc1C/C=C/c1ccc(OC)cc1 [Compound 7d, (E)-N-(2-(3-(4-Methoxyphenyl)allyl)phenyl)pentanamide] | inactive; also recorded: low growth inhibition | < 0.75 | < 0.71 | > 100 | > 100 | > 100 | > 100 | 75 ± 8.58 | 71.2 ± 9.25 | low growth inhibition | > 1.70 | 1.54 | 1.49 | 58.9 ± 1.81 | 48.7 ± 3.46 | 47.9 ± 2.96 | – | < 2
CCCCCC(=O)Nc1ccccc1C/C=C/c1ccc(OC)cc1 [Compound 7e, (E)-N-(2-(3-(4-Methoxyphenyl)allyl)phenyl)hexanamide] | inactive; also recorded: low growth inhibition | < 0.70 | < 0.69 | > 100 | > 100 | > 100 | > 100 | 70.3 ± 1.88 | 69.18 ± 0.01 | low growth inhibition | – | < 0.70 | 0.78 | > 100 | > 100 | 88.5 ± 2.37 | – | –
COc1ccc(/C=C/Cc2ccccc2NC(=O)c2ccccc2C)cc1 [Compound 7i, (E)-N-(2-(3-(4-Methoxyphenyl)allyl)phenyl)-2-methylbenzamide] | low growth inhibition | – | – | – | – | – | – | – | – | low growth inhibition | – | – | – | – | – | – | – | –
